What was measured:
[1] = test system: dd male mice; experiment: Acute Toxicity Test (minimum lethal dose, MLD); format: in vivo; details: dd male mice, mortality after 7 days
Procedure: A test compound was given to dd male mice weighing 20±1 g (3 mice per group) per os. (p.o.; 300 mg/kg) or intraperitoneally (i.p.; 100 mg/kg). The mortality after 7 days from the administration was considered to determine the minimum lethal dose (MLD).

[2] = molecular target: T1, thromboxane synthase (TXA2 synthase), bovine platelet microsome (Bos taurus, UniProt Q2KIG5); experiment: Test on Inhibition of TXA2 Biosynthesis (bovine platelet microsome, TXB2 by radioimmunoassay); format: biochemical
T1 construct: bovine platelet microsome; from tissue; host or cells: bovine platelets (microsome)
T1 sequence (Q2KIG5 1-533): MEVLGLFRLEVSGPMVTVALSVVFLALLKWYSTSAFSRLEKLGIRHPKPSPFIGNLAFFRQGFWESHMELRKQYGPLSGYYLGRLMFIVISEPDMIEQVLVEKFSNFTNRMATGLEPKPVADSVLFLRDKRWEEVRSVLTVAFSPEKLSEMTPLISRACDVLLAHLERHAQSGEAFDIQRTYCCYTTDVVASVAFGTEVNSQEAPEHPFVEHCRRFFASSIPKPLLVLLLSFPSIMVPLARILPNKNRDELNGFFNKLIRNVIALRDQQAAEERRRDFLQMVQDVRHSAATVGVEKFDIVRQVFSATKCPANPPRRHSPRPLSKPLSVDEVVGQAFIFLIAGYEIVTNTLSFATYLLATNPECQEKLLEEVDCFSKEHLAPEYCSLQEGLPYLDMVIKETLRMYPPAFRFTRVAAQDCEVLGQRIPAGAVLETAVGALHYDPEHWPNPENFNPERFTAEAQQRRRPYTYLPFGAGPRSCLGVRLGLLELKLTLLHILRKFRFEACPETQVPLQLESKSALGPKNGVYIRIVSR
Procedure: A mixture of 70 μl of bovine platelet microsome [protein: 40 μg; 100 mM tris-HCl buffer (pH=7.4)] and 10 μl of a test compound solution (100 mM tris-HCl buffer containing 10% methanol) was allowed to stand at 0° C. for 5 minutes, and 20 μl of a prostaglandin H2 solution (100 mM tris-HCl buffer supplemented with acetone containing 0.1 nmol of prostaglandin H2) was added thereto as a substrate.
The amount of thromboxane B2 (TXB2) (stable degradation product of TXA2) produced in the system was determined by radioimmunoassay [F. A. Fitzpatrick et al., Methods in Enzymology, Vol. 86, p.286 (1982)].
Inhibition of TXB2 synthesis was evaluated by IC50 (50% inhibitory concentration) or percent inhibition as calculated from equation described below, and the results obtained are shown in Table 1. [formula]

| SMILES | Acute Toxicity (MLD) ip [1] [mg/kg] | Acute Toxicity (MLD) po [1] [mg/kg] | inhibition at 10 µM [2] [%] |
| --- | --- | --- | --- |
| O=C(O)CCCCCC1c2ccccc2NC(=O)c2cnccc21 (stereo not drawn) [Compound I-21, 5-(5-Carboxypentyl)-5,11-dihydropyrido[3,4-c][1]benzazepin-11(10H)-one] | > 100 | > 300 | 47 |
| CSC1Nc2ccccc2C(=CCCCCC(=O)O)c2ccncc21 (stereo not drawn) [Compound I-22, 5-(5-Carboxypentylidene)-11-thiomethyl-5H-10,11-dihydropyrido[3,4-c][1]benzazepin] | > 100 | > 300 | 27 |
| O=C(O)CCCCC=C1c2ccncc2CNc2ccccc21 [Compound I-23, 5-(5-carboxypentylidene)-5H-10,11-dihydropyrido[3,4-c][1]benzazepin] | > 100 | > 300 | 27 |

— patent US4971964A, “Pyridine derivatives” (priority 1988, dated 1990)
